Several values for one entry are separate records, joined by “and”; a condition that tells them apart may be missing. Equal entries are not always repeated. Starred links: 1 amine or outer side, 2 acyl side, 3 side chain; linkers in the order of their positions; H or OH if unused. Positions of bridges follow the written chain, without caps; N, C: chain ends. Non-standard residues stand in square brackets, D forms with d. Residues, ends and D or L forms follow the SMILES beside them. Trp(2-yl) = O=C([C@H](Cc1c([*:3])[nH]c2ccccc12)N[*:1])[*:2]; Pro(trans-4-guanidino) = N=C(N)N[C@H]1CN[C@H](C(=O)O)C1; Ile(4R-OH,5-OH) = C[C@H]([C@H](N)C(=O)O)[C@@H](O)CO; Pro(4R-NH2) = N[C@H]1CN[C@H](C(=O)O)C1
Legend:
Pol II = molecular target: T1, Pol II (Homo sapiens, UniProt P24928); test: In vitro transcription runoff assay using HeLaScribe nuclear extract; assay type: biochemical; settings: for Transcription activity E (%): mean ± standard deviation
T1 construct: HeLaScribe® nuclear extract containing Pol II and all other transcription factors; purchased Promega; host or cells: HeLa nuclear extract (endogenous protein)
Description: (h) In vitro transcription assay of synthetic amanitins containing analogs of Hyp: Primers were purchased from IDT via standard phosphoramidite chemistry. dNTP and rNTP were purchased from Thermofisher. GoTaq polymerase and HeLaScribe*Nuclear Extract in vitro Transcription System was purchased from Promega. Taq polymerase was purchased from NEB. [^32P] α-dGTP (3000 Ci/mmol 10 mCi/ml EasyTide) and [^32P] α-GTP (3000 Ci/mmol 10 mCi/ml EasyTide) were purchased from Perkin Elmer. QIAquick PCR purifcation kit was purchased from Qiagen. AcGFP1-N1 was a gift (Addgene plasmid #54705; http://n2t.net/addgene:54705; RRID:Addgene_54705). DNA Primer sequences were:
The DNA template for transcription runoff was synthesized by PCR with template pAcGFP-N1, and primers P1 and P2. To a final volume of 20 μL, 1 x GoTaq Buffer, 250 μM of each dNTP, 500 nM of each primers P1 and P2, […] pAcGFP-N1 and 0.05 U/μL GoTaq were employed to thermocycle for 30 cycles (30 s at 95° C., 30 s at 50° C. and 60 s at 72° C., Bio-Rad). A 1 μL aliquot of the amplified solution was resolved with 6×DNA loading dye in a 1% agarose gel containing […] and then visualized using GelDoc XR imager (Bio-Rad). Purification was completed via QIAquick PCR purification kit (Qiagen). The radioactive chromatographic standard was synthesized by PCR with template pAcGFP-N1, and primers P3 and P4. To a final volume of 50 μL, 1 x Thermopol Buffer, 200 μM of each dNTP, 500 nM of each primers P3 and P4, 10 pg/μL pAcGFP-N1 and 0.02 U/μL Vent polymerase, 1 μL [^32P] α-dGTP were employed to thermocycle for 30 cycles (30 s at 95° C., 30 s at 62° C. and 30 s at 72° C., Bio-Rad). A 1 μL aliquot of the amplified solution was resolved with 6×DNA loading dye in 8% denaturing PAGE and then visualized by autoradiography via the Typhoon 9200 imager (Molecular namics-Amersham-GE). Purification was completed via QIAquick PCR purification kit (Qiagen). The transcription runoff assay was modified from HeLaScribe® Nuclear Extract in vitro Transcription System (Promega). […]. The pellet was resolved by 8% denaturing PAGE and then visualized by autoradiography via the Typhoon 9200 imager (Molecular dynamics-Amersham-GE). Dosimetry was calculated by ImageJ, and the 3 parameter logistic fit was completed by Origin 2019 (OriginLab). […]
All data were presented in mean±standard deviation (n=3).

CHO cells = test: Viability assay against CHO cells (MTT colorimetric assay); assay type: cell-based, Chinese hamster; settings: 72 h, replicates n = 1, 2, 3
Experimental: (§1) (f) Cell culture: Cells were cultured in Minimum Essential Medium Eagle—Alpha Modification (α-MEM) or […] Dulbecco's Modified Eagle Medium (DMEM), purchased from Gibco. […] All cell culture plastic ware was obtained from Coming or Falcon. Cells were cultured at 37° C. in a humidified chamber with 5% CO2. When used in cell culture, DMSO was purified by filtration through a […] filter. All experiments were carried out in a laminar flow culture cabinet, unless otherwise noted.
(§2) Immortalized CHO cells had been stored in liquid nitrogen. To revive cells, a 1-mL tube of the frozen cells in medium containing 10% DMSO was warmed in a 30° C. water bath and diluted with 9 mL of fresh media. Media contained 10% FBS and 100 U/mL penicillin and […] streptomycin, unless otherwise indicated. The cells were incubated in a T-25 flask at 37° C. at 5% CO2. After 24 hours, the medium was aspirated and replaced with fresh medium. When cells reached a level of 90-100% confluence, they were sub-cultured. […] Once the cells were detached from the tissue culture flask, 3-5 mL media was added to quench the trypsin and the mixture was transferred to a 10 mL centrifuge tube. The mixture was centrifuged for 5 min at […], and the supernatant was discarded. The cells were suspended in fresh medium, diluted as required, and transferred to a new culture flask.
(§3) To assay cell viability, a nearly confluent tissue culture flask was trypsinized, and the cells were counted following treatment with Trypan blue, using a hemocytometer. The cells were then diluted to the appropriate stock concentrations in fresh medium and transferred in 100 μL to a 96-well plate using a multi-channel pipette. The number of cells plated varied from experiment to experiment. These were incubated at 37° C. and 5% CO2 for a 24-hour period to allow for adherence. The medium was aspirated, and fresh medium was added, which contained the desired additives in DMSO. The cells were then re-incubated for 72 h. At the completion of the experiment, a 100 μL aliquot of 25 mg/mL MTT in phosphate-buffered saline (PBS) was added to each well. The plate was incubated three hours further to allow for the formation of the formazan product in viable cells. The media was carefully aspirated, and the purple product was solubilized in DMSO. […] Data was processed in Microsoft Excel and GraphPad Prism. Experiments were performed in triplicates unless otherwise noted, and the error bars were calculated as the standard error of the mean.
(§4) Each cell line was plated in a 96-well plate, with 100 μL of the stock solution per well (5000 cells per well) and incubated for 24 hours. […] The cells were incubated for 72 hours, at which point viability was assessed as described.

[1] = as above; assay type: cell-based, Chinese hamster; settings: Chinese hamster, CHO cells, 72 h, replicates n = 1, 2, 3, read-out: % viable cells; for viability at 72 h, 1e-05 M: 1e-005 M; for viability at 72 h, 1.25e-06 M: 1.25e-006 M; for viability at 72 h, 1.56e-07 M: 1.56e-007 M; for viability at 72 h, 2e-05 M: 2e-005 M; for viability at 72 h, 2.5e-06 M: 2.5e-006 M; for viability at 72 h, 3.125e-07 M: 3.125e-007 M; for viability at 72 h, 5e-06 M: 5e-006 M; for viability at 72 h, 6.25e-07 M: 6.25e-007 M; for viability at 72 h, 7.8e-08 M: 7.8e-008 M
Experimental: as §1, §2, §3, §4

[2] = IC50 (nM), Table 11, 3 parameter logistic fit
[3] = IC50 (nM), Table 12, n = 3, high values estimated from activity at [I]=1.0 μM

| Structure (SMILES) | Transcription activity E (%) (Pol II; 30 nM) | Transcription activity E (%) (Pol II; 100 nM) | Transcription activity E (%) (Pol II; 300 nM) | Transcription activity E (%) (Pol II; 1000 nM) | Transcription activity E (%) (Pol II; 3000 nM) | IC50 (Pol II; IC50) | IC50 (Pol II; [2]) | IC50 (Pol II; [3]) | viability at 72 h, 1e-05 M [1] | viability at 72 h, 1.25e-06 M [1] | viability at 72 h, 1.56e-07 M [1] | viability at 72 h, 2e-05 M [1] | viability at 72 h, 2.5e-06 M [1] | viability at 72 h, 3.125e-07 M [1] | viability at 72 h, 5e-06 M [1] | viability at 72 h, 6.25e-07 M [1] | viability at 72 h, 7.8e-08 M [1] | also measured |
| --- | --- | --- | --- | --- | --- | --- | --- | --- | --- | --- | --- | --- | --- | --- | --- | --- | --- | --- |
| CC[C@H](C)[C@@H]1NC(=O)CNC(=O)[C@@H]2Cc3c([nH]c4ccccc34)SC[C@H](NC(=O)CNC1=O)C(=O)N[C@@H](CC(N)=O)C(=O)N1C[C@H](NC(=N)N)C[C@H]1C(=O)N[C@@H]([C@@H](C)[C@@H](O)CO)C(=O)N2 [Compound 7, Gdn-Pro-amanitin] (cyclo(CN[Pro(trans-4-guanidino)][Ile(4R-OH,5-OH)][Trp(2-yl)]GIG); thioether 1-5) | 77.3 ± 9.0% | 76.1 ± 13.2% | 56.6 ± 11.6% | 31.3 ± 5.8% | 14.1 ± 7.1% | ~400 nM | 410 ± 80 nM | 410 ± 80 nM | 100% | 89% | 88% | 99% | 90% | 85% | 93% | 88% | 96% | IC50 fold higher than that of the natural product (Pol II; vs α-amanitin): approximately 50 fold; % viable cells (CHO cells; 1e-005 M, listed as Gdn-Pro-amanitin (7)): 102%; % viable cells (CHO cells; 1.25e-006 M, listed as Gdn-Pro-amanitin (7)): 86%; % viable cells (CHO cells; 1.56e-007 M, listed as Gdn-Pro-amanitin (7)): 91% and 80%; % viable cells (CHO cells; 2e-005 M, listed as Gdn-Pro-amanitin (7)): 101%; % viable cells (CHO cells; 2.5e-006 M, listed as Gdn-Pro-amanitin (7)): 82%; % viable cells (CHO cells; 3.125e-007 M, listed as Gdn-Pro-amanitin (7)): 86%; % viable cells (CHO cells; 6.25e-007 M, listed as Gdn-Pro-amanitin (7)): 83% and 84%; % viable cells (CHO cells; 7.8e-008 M, listed as Gdn-Pro-amanitin (7)): 92% |
| CC[C@H](C)[C@@H]1NC(=O)CNC(=O)[C@@H]2Cc3c([nH]c4ccccc34)SC[C@H](NC(=O)CNC1=O)C(=O)N[C@@H](CC(N)=O)C(=O)N1C[C@H](N)C[C@H]1C(=O)N[C@@H]([C@@H](C)[C@@H](O)CO)C(=O)N2 [Compound 6, NH2-Pro-amanitin] (cyclo(CN[Pro(4R-NH2)][Ile(4R-OH,5-OH)][Trp(2-yl)]GIG); thioether 1-5) | 91.7 ± 9.3% | 82.3 ± 12.8% | 55.0 ± 23.6% | 38.6 ± 18.3% | 19.8 ± 9.9% | 550 ± 90 nM | 550 ± 90 nM | 550 ± 90 nM | 91% | 95% | 95% | 92% | 86% | 86% | 87% | 92% | 96% | % viable cells (CHO cells; 1e-005 M, listed as NH2-Pro-amanitin (6)): 81% and 83%; % viable cells (CHO cells; 1.25e-006 M, listed as NH2-Pro-amanitin (6)): 88%; % viable cells (CHO cells; 1.56e-007 M, listed as NH2-Pro-amanitin (6)): 97%; % viable cells (CHO cells; 2e-005 M, listed as NH2-Pro-amanitin (6)): 89% and 85%; % viable cells (CHO cells; 2.5e-006 M, listed as NH2-Pro-amanitin (6)): 85% and 82%; % viable cells (CHO cells; 5e-006 M, listed as NH2-Pro-amanitin (6)): 79% and 84%; % viable cells (CHO cells; 6.25e-007 M, listed as NH2-Pro-amanitin (6)): 85%; % viable cells (CHO cells; 7.8e-008 M, listed as NH2-Pro-amanitin (6)): 89% |

Reference: US20240082416A1, “AMATOXIN ANALOGS AND USES THEREOF” (THE UNIVERSITY OF BRITISH COLUMBIA, priority 2020, published 2024)
